From patent US20070258912A1, “Use of Fluorescent Whitening Agents as Antimicrobials” (priority 2004, published 2007)
Where two headings read alike, the source gives them in different places.

What was measured:
Format in all cases: cell-based
[1] = test system: Corynebacterium xerosis; assay: MIC in the agar incorporation test
Protocol: (§1) Determination of Minimum Inhibitory Concentration (MIC Values) in the Agar Incorporation Test
(§2) 1% stock solutions of the substances are prepared in an appropriate solvent and diluted in serial dilutions 1:2 (to yield end concentrations in the agar of 500-1.9 ppm). 0.3 ml of each dilution step is mixed with 15 ml of nutrient medium while the latter is still liquid. After the nutrient medium has solidified, 10 μl of each test strain in 0.85% NaCl solution are spotted onto the agar medium.
(§3) The plates are incubated at 37° C. for 24 hours and then the highest dilution (lowest concentration) of the test substance at which growth is no longer observable is determined.
(§4) Test Organisms: Staphylococcus aureus ATCC 6583 Staphylococcus epidermidis ATCC 12228 Corynebacterium xerosis ATCC 373 Propionibacterium acnes ATCC Escherichia coli ATCC 10536 Salmonella choleraesuis ATCC Klebsiella pneumoniae ATCC *Candida albicans ATCC 10231
(§5) *Aspergillus niger ATCC 6275

[2] = test system: Klebsiella pneumoniae; assay: MIC in the agar incorporation test; conditions: Mueller Hinton agar, 24 hours at 37° C.
Protocol: as §1, §2, §3, §4, §5

[3] = test system: Propionibacterium acnes; assay: MIC in the agar incorporation test; conditions: Cutibacterium acnes, read-out: MIC Propionibacterium acnes
Protocol: as §1, §2, §3, §4, §5

[4] = test system: Staphylococcus aureus; assay: MIC in the agar incorporation test
Protocol: as §1, §2, §3, §4, §5

[5] = test system: Staphylococcus epidermis; assay: MIC in the agar incorporation test
Protocol: as §1, §2, §3, §4, §5

[6] = test system: Corynebacterium minutissimum; assay: MIC in the agar incorporation test; conditions: read-out: MIC Corynebacterium minutissimum
[7] = test system: Actinobacillus actinomycetemcomitans; assay: MIC against oral microorganisms via broth dilution; conditions: Aggregatibacter actinomycetemcomitans, ATCC43718; broth dilution 0.94-15 ppm, 24 h aerobically with 10% CO2, ATCC 43718
Protocol: (§6) Determination of the Minimum Inhibition Concentration (MIC Value) Against Different Oral Microorganisms Via Broth Dilution
(§7) 1500 ppm stock solutions of the substances are prepared in ethanol and pipetted into the growth medium to yield concentrations between 0.94 and 15 ppm. Bacteria are taken from blood agar plates with cotton swabs and adjusted in the appropriate growth medium to yield an optical density corresponding to McFarland 0.5. This suspension is directly used in the case of F. nucleatum and P. nigrescens. For the other strains, the suspension is diluted 1:20. 0.1 ml of these bacterial suspensions are added to 2 ml of the substance solutions. After the incubation time, the tubes are assessed for growth (turbidity).
(§8) Test Organisms: *Actinobacillus actinomycetemcomitans ATCC 43718 *Stretococcus gordonii ATCC 10558 *Streptococcus mutans ATCC 33402 Actinomyces viscosus ATCC 43146 Fusobacterium nucleatum subsp. polymorphum ATCC 10953 Porphyromonas gingivalis ATCC 33277
(§9) Prevotella nigrescens ATCC 33563

[8] = test system: Actinomyces viscosus; assay: MIC against oral microorganisms via broth dilution
Protocol: as §6, §7, §8, §9

[9] = test system: Fusobacterium nucleatum subsp. polymorphum; assay: MIC against oral microorganisms via broth dilution; conditions: ATCC10953, broth dilution 0.94-15 ppm, 7-10 days at 37° C. anaerobically, ATCC 10953, read-out: MIC Fusobacterium nucleatum subsp. polymorphum
Protocol: as §6, §7, §8, §9

[10] = test system: Porphyromnas gingivalis; assay: MIC against oral microorganisms via broth dilution; conditions: read-out: MIC Porphyromnas gingivalis
Protocol: as §6, §7, §8, §9

[11] = test system: Prevotella nigrescens; assay: MIC against oral microorganisms via broth dilution
Protocol: as §6, §7, §8, §9

[12] = test system: Streptococcus gordonii; assay: MIC against oral microorganisms via broth dilution
Protocol: as §6, §7, §8, §9

[13] = test system: Streptococcus mutans; assay: MIC against oral microorganisms via broth dilution
Protocol: as §6, §7, §8, §9

[14] = test system: Actinomyces viscosus ATCC 43146; assay: Substantivity on hydroxyapatite and growth inhibition; conditions: 500 ppm ethanolic solution; discs pretreated with artificial saliva; 6 and 24 hours at 37° C.; vs untreated control
Protocol: Hydroxyapatite discs are incubated in artificial saliva (German Dental Magazine DZZ 5/2002) for 4 hrs under stirring, rinsed in NaCl, dried over night, and then incubated in ethanolic solutions of the test substances. Then all treated discs are put in 12 well Nucleon surface titre plates (one disc per well), and Caso Broth inoculated with the test strain. The titre plates are incubated at 37° C., samples are taken after 6 and 24 hrs and the colony count is determined by plate count.

[15] = test system: Escherichia coli; assay: MIC in the agar incorporation test; conditions: ATCC10536, agar incorporation, Mueller Hinton agar, 24 hours at 37° C., ATCC 10536, read-out: MIC Escherichia coli
Protocol: as §1, §2, §3, §4, §5

[16] = test system: Salmonella choleraesuis; assay: MIC in the agar incorporation test; conditions: Salmonella enterica, Mueller Hinton agar, 24 hours at 37° C.
Protocol: as §1, §2, §3, §4, §5

[17] = test system: Actinomyces viscosus; assay: Microbicidal activity (suspension test, plate count); conditions: 120 ppm, ATCC 43146; for Microbicidal activity Actinomyces viscosus 120 ppm/5 min: 5 min contact at 22° C.; for Microbicidal activity Actinomyces viscosus 120 ppm/30 min: 30 min contact at 22° C.
Protocol: (§10) Determination of Microbicidal Activity
(§11) 1 g stock solution with an appropriate concentration of test products are mixed with 8 g water and then inoculated with 1 ml of the selected test organisms. After a given contact period, aliquots are taken, inactivated and diluted. The number of surviving bacteria per ml incubation assay is determined by plate count. Proper inactivation by the inactivating medium used was checked each time.
(§12) Diluent: tryptone water for microorganisms
(§13) • (0.1% tryptone (Oxoid), 0.85% NaCl, deion. water) • deion. water for test substances • inactivating medium for detection of surviving microorganisms Growth medium: casein soybean peptone agar Inactivating Medium: tryptic soy broth special • (10% w/w Tween 80, 3% w/w Lecithine, 0.1% w/w L-Histidine, • 0.055% w/w Sodium thiosulfate) Test organisms: Staphylococcus aureus ATCC 6538 • Escherichia coli ATCC 10536 • Actinomyces viscosus ATCC 43146 • Corynebacterium xerosis ATCC 373 Test concentration: 120 ppm and 1200 ppm Contact times: 5 and 30 minutes at 22° C.
(§14) Incubation time: 24 h at 37° C.

[18] = test system: Corynebacterium xerosis; assay: as above; conditions: 120 ppm, ATCC 373; for Microbicidal activity Corynebacterium xerosis 120 ppm/5 min: 5 min contact at 22° C.; for Microbicidal activity Corynebacterium xerosis 120 ppm/30 min: 30 min contact at 22° C.
Protocol: as §10, §11, §12, §13, §14

[19] = test system: Escherichia coli; assay: as above; conditions: 120 ppm, ATCC 10536; for Microbicidal activity Escherichia coli 120 ppm/5 min: 5 min contact at 22° C.; for Microbicidal activity Escherichia coli 120 ppm/30 min: 30 min contact at 22° C.
Protocol: as §10, §11, §12, §13, §14

[20] = test system: Staphylococcus aureus; assay: as above; conditions: 120 ppm, ATCC 6538; for Microbicidal activity Staphylococcus aureus 120 ppm/5 min: 5 min contact at 22° C.; for Microbicidal activity Staphylococcus aureus 120 ppm/30 min: 30 min contact at 22° C.
Protocol: as §10, §11, §12, §13, §14

[21] = ATCC373, agar incorporation, Mueller Hinton agar, 24 hours at 37° C., ATCC 373, read-out: MIC Corynebacterium xerosis
[22] = agar incorporation, Mueller Hinton agar, 24 hours at 37° C.
[23] = ATCC6583, agar incorporation, Mueller Hinton agar, 24 hours at 37° C., ATCC 6583, read-out: MIC Staphylococcus aureus
[24] = ATCC12228, agar incorporation, Mueller Hinton agar, 24 hours at 37° C., ATCC 12228, read-out: MIC Staphylococcus epidermis
[25] = ATCC43146, broth dilution 0.94-15 ppm, 7-10 days at 37° C. anaerobically, ATCC 43146, read-out: MIC Actinomyces viscosus
[26] = broth dilution 0.94-15 ppm, Columbia bouillon, 7-10 days at 37° C. anaerobically, ATCC 33277
[27] = ATCC33563, broth dilution 0.94-15 ppm, Columbia bouillon, 7-10 days at 37° C. anaerobically, ATCC 33563, read-out: MIC Prevotella nigrescens
[28] = ATCC10558, broth dilution 0.94-15 ppm, 24 h aerobically with 10% CO2, ATCC 10558, read-out: MIC Streptococcus gordonii
[29] = ATCC33402, broth dilution 0.94-15 ppm, 24 h aerobically with 10% CO2, ATCC 33402, read-out: MIC Streptococcus mutans

MIC [1, 21] [µg/mL]	MIC [2] [µg/mL]	MIC [3, 22] [µg/mL]	MIC [4, 23] [µg/mL]	MIC [5, 24] [µg/mL]	MIC [6, 22] [µg/mL]	MIC [7] [µg/mL]	MIC [8, 25] [µg/mL]	MIC [9] [µg/mL]	MIC [10, 26] [µg/mL]	MIC [11, 27] [µg/mL]	MIC [12, 28] [µg/mL]	MIC [13, 29] [µg/mL]	MIC [15] [µg/mL]	Structure (SMILES)	Growth inhibition of Actinomyces viscosus after adsorption on hydroxyapatite discs [14]	MIC [16] [µg/mL]	Microbicidal activity Actinomyces viscosus 120 ppm/5 min [17] [log reductions]	Microbicidal activity Actinomyces viscosus 120 ppm/30 min [17] [log reductions]	Microbicidal activity Corynebacterium xerosis 120 ppm/5 min [18] [log reductions]	Microbicidal activity Corynebacterium xerosis 120 ppm/30 min [18] [log reductions]	also measured
3.8	120	3.8	7.5	7.5	3.8	15	3.75	15	1.9	1.9	7.5	7.5		CCN(CC)CCOc1ccccc1/C=C/c1ccc(/C=C/c2ccccc2OCCN(CC)CC)cc1 [formula 24]	growth inhibition						
3.1	25	12.5	6.3	6.3	6.3	15	3.8	3.8	3.8	1.9	7.5	3.8	200	CN(C)CCCOc1ccccc1/C=C/c1ccc(/C=C/c2ccccc2OCCCN(C)C)cc1 [formula 26]		200	0	3.7	2.9	5	Microbicidal activity Escherichia coli 120 ppm/5 min [19]: 4.5 log reduction; Microbicidal activity Escherichia coli 120 ppm/30 min [19]: 5 log reduction; Microbicidal activity Staphylococcus aureus 120 ppm/5 min [20]: 0 log reduction; Microbicidal activity Staphylococcus aureus 120 ppm/30 min [20]: 4 log reduction
3.1	25	3.1	3.1	3.1	6.3	7.5	3.8	3.8	1.9	1.9	7.5	3.8	200	Cc1ccc(/C=C/c2ccc(/C=C/c3cccc(OCCCN(C)C)c3)cc2)c(OCCN(C)C)c1 [formula 29]		200	2.5	5	5	5	Microbicidal activity Escherichia coli 120 ppm/5 min [19]: 5 log reduction; Microbicidal activity Escherichia coli 120 ppm/30 min [19]: 5 log reduction; Microbicidal activity Staphylococcus aureus 120 ppm/5 min [20]: 3 log reduction; Microbicidal activity Staphylococcus aureus 120 ppm/30 min [20]: 5 log reduction
														CC[N+](C)(C)CCCOc1ccccc1/C=C/c1ccc(-c2ccc(/C=C/c3ccccc3OCCC[N+](C)(C)CC)cc2)cc1 [formula 33]	growth inhibition						MIC ([1]; ATCC373, 24 h, read-out: MIC Corynebacterium xerosis): 31.3 µg/mL; MIC ([3]; 24 h): 3.9 µg/mL; MIC ([4]; ATCC6583, 24 h, read-out: MIC Staphylococcus aureus): 3.9 µg/mL; MIC ([5]; ATCC12228, 24 h, read-out: MIC Staphylococcus epidermis): 3.9 µg/mL; MIC ([6]; 24 h): 7.8 µg/mL; MIC ([8]; ATCC43146, read-out: MIC Actinomyces viscosus): 3.8 µg/mL; MIC [10]: 15 µg/mL; MIC ([11]; ATCC33563, read-out: MIC Prevotella nigrescens): 3.75 µg/mL; MIC ([12]; ATCC10558, 24 h, read-out: MIC Streptococcus gordonii): 3.75 µg/mL; MIC ([13]; ATCC33402, 24 h, read-out: MIC Streptococcus mutans): 1.88 µg/mL
